Experimental data: patent publication US11548884B2, “Cyclic amidine compounds for the treatment of autoimmune disease” (Hoffmann-La Roche Inc., priority 2018, dated 2023)

Target: T1, human TLR8 (Homo sapiens, UniProt Q9NR97)
T1 sequence (Q9NR97 27-1041): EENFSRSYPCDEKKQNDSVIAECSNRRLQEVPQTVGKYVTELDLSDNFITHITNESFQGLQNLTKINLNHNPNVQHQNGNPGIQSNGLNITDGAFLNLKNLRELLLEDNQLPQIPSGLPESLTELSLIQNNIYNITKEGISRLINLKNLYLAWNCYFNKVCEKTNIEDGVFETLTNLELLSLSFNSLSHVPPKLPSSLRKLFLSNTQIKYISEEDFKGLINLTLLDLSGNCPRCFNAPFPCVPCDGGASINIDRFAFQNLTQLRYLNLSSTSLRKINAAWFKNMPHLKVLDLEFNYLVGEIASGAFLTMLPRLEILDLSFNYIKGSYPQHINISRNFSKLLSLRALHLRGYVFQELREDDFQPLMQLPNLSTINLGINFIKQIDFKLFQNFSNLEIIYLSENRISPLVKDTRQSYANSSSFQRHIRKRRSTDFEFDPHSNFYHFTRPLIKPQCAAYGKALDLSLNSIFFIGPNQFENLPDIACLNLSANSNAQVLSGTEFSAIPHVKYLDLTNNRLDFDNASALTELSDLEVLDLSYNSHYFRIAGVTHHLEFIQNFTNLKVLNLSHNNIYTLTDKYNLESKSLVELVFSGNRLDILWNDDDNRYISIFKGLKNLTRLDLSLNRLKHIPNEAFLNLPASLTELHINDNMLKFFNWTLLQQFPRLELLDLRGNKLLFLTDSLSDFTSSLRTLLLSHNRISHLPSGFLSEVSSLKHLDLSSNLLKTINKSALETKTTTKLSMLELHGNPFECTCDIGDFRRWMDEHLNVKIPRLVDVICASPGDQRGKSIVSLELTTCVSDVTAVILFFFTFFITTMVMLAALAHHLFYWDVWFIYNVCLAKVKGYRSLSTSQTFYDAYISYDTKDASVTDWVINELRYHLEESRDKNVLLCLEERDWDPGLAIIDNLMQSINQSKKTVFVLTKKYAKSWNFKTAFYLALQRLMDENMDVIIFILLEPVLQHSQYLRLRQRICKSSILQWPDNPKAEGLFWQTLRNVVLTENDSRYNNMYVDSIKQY
Assay: HEK293-Blue-hTLR-8 cells assay (SEAP reporter, R848 stimulation)
Assay type: cell-based
Conditions: HEK293-Blue-hTLR8 cells, R848 ligand, 20 h incubation
Procedure: The following tests were carried out in order to determine the activity of the compounds of formula (I) in HEK293-Blue-hTLR-7/8/9 cells assay.
HEK293-Blue-hTLR-8 Cells Assay:
A stable HEK293-Blue-hTLR-8 cell line was purchased from InvivoGen (Cat. #: hkb-htlr8, San Diego, Calif., USA). These cells were originally designed for studying the stimulation of human TLR8 by monitoring the activation of NF-κB. A SEAP (secreted embryonic alkaline phosphatase) reporter gene was placed under the control of the IFN-β minimal promoter fused to five NF-κB and AP-1-binding sites. The SEAP was induced by activating NF-κB and AP-1 via stimulating HEK-Blue hTLR8 cells with TLR8 ligands. Therefore the reporter expression was declined by TLR8 antagonist under the stimulation of a ligand, such as R848, for incubation of 20 h. The cell culture supernatant SEAP reporter activity was determined using QUANTI-Blue™ kit (Cat. #: rep-qb1, Invivogen, San Diego, Calif., USA) at a wavelength of 640 nm, a detection medium that turns purple or blue in the presence of alkaline phosphatase.
HEK293-Blue-hTLR8 cells were incubated at a density of 250,000˜450,000 cells/mL in a volume of 170 μL in a 96-well plate in Dulbecco's Modified Eagle's medium (DMEM) containing 4.5 g/L glucose, 50 U/mL penicillin, […], […], 2 mM L-glutamine, 10% (v/v) heat-inactivated fetal bovine serum with addition of 20 μL test compound in a serial dilution in the presence of final DMSO at 1% and 10 μL of 60 uM R848 in above DMEM, perform incubation under 37° C. in a CO2 incubator for 20 h. Then 20 μL of the supernatant from each well was incubated with 180 μL Quanti-blue substrate solution at 37° C. for 2 h and the absorbance was read at 620˜655 nm using a spectrophotometer. The signalling pathway that TLR8 activation leads to downstream NF-κB activation has been widely accepted, and therefore similar reporter assay was modified for evaluating TLR8 antagonist.

| IC50 [µM] | SMILES |
| --- | --- |
| 0.008 | C[C@@H]1CN(c2ccc(C#N)c3ncccc23)C[C@H](C2=Nc3cccc(N4CCNCC4)c3CN2)O1 [Example 6, 5-[(2R,6R)-2-methyl-6-(5-piperazin-1-yl-3,4-dihydroquinazolin-2-yl)morpholin-4-yl]quinoline-8-carbonitrile] |
| < 0.003 | C[C@@H]1CN(c2ccc(C#N)c3ncccc23)C[C@H](C2=Nc3ccc(N4CCNCC4)cc3CN2)O1 [Example 7, 5-[(2R,6R)-2-methyl-6-(6-piperazin-1-yl-3,4-dihydroquinazolin-2-yl)morpholin-4-yl]quinoline-8-carbonitrile] |
| 0.004 | C[C@@H]1CN(c2ccc(C#N)c3ncccc23)C[C@H](C2=Nc3cc(N4CCNCC4)ccc3CN2)O1 [Example 8, 5-[(2R,6R)-2-methyl-6-(7-piperazin-1-yl-3,4-dihydroquinazolin-2-yl)morpholin-4-yl]quinoline-8-carbonitrile] |
| 0.046 | C[C@@H]1CN(c2ccc(C#N)c3ncccc23)C[C@H](C2=Nc3c(cccc3N3CCNCC3)CN2)O1 [Example 9, 5-[(2R,6R)-2-methyl-6-(8-piperazin-1-yl-3,4-dihydroquinazolin-2-yl)morpholin-4-yl]quinoline-8-carbonitrile] |
| 0.014 | C[C@@H]1CN(c2ccc(C#N)c3ncccc23)C[C@H](C2=Nc3cccc(N4CCN(C)CC4)c3CN2)O1 [Example 12, 5-[(2R,6R)-2-methyl-6-[5-(4-methylpiperazin-1-yl)-3,4-dihydroquinazolin-2-yl]morpholin-4-yl]quinoline-8-carbonitrile] |
| 0.087 | C[C@@H]1CN(c2ccc(C#N)c3ncccc23)C[C@H](C2=Nc3cccc(N4CCC5(CCNC5)C4)c3CN2)O1 (stereo partly drawn) [Example 13, 5-[(2R,6R)-2-[5-(2,7-diazaspiro[4.4]nonan-2-yl)-3,4-dihydroquinazolin-2-yl]-6-methyl-morpholin-4-yl]quinoline-8-carbonitrile] |
| 0.191 | C[C@@H]1CN(c2ccc(C#N)c3ncccc23)C[C@H](C2=Nc3cccc(C4=CCNCC4)c3CCN2)O1 [Example 16, 5-[(2R,6R)-2-methyl-6-[6-(1,2,3,6-tetrahydropyridin-4-yl)-4,5-dihydro-3H-1,3-benzodiazepin-2-yl]morpholin-4-yl]quinoline-8-carbonitrile] |
| 0.148 | C[C@@H]1CN(c2ccc(C#N)c3ncccc23)C[C@H](C2=Nc3ccc(N4CCNCC4)cc3CCN2)O1 [Example 17, 5-[(2R,6R)-2-methyl-6-(7-piperazin-1-yl-4,5-dihydro-3H-1,3-benzodiazepin-2-yl)morpholin-4-yl]quinoline-8-carbonitrile] |
| 0.071 | C[C@@H]1CN(c2ccc(C#N)c3ncccc23)C[C@H](C2=Nc3cccc(C4CCNCC4)c3CN2)O1 [Example 18, 5-[(2R,6R)-2-methyl-6-[5-(4-piperidyl)-3,4-dihydroquinazolin-2-yl]morpholin-4-yl]quinoline-8-carbonitrile] |
